# Experimental data: US9107954B2, “Bivalent ligands for the treatment of neurological disorders” (Virginia Commonwealth University, priority 2012, dated 2015)
# Like-named read-outs stand apart in the source and are kept apart here.
# What was measured:
# [1] = system: R5-tropic HIV-1SF162 in primary human astrocytes; experiment: HIV-1SF162 infectivity, Tat luciferase reporter assay in primary human astrocytes; assay type: cell-based; conditions: for effect on viral entry / Tat production, Example 4 / effect on virus invasion (Tat expression), Example 3: MVC 100 nM; for effect on viral entry / Tat production, Example 4: NTX 1.5 μM, 18 h; for effect on virus invasion (Tat expression), Example 3: NTX 1500 nM, naltrexone groups with and without morphine
# Procedure: Primary human astrocytes (ScienCell catalog #1901) were cultured in 24-well plates and transfected with the plasmid pBlue3′LTR-luc (NIH AIDS Research and Reference Reagent Program) using Lipofectamine 2000 (Invitrogen) followed by infection with HIV-1. After 18-20 h cells were rinsed twice in 1×PBS then lysed in Cell Culture Lysis Reagent (Promega) and relative Tat protein expression was determined by measuring luciferase activity using the Luciferase Assay System (Promega; catalog # E1500). Light units were measured using a PHERAstar FS plate reader (BMG Labtech).
# Primary human astroglial cells were infected by incubation with the neurotropic HIV-1 strain SF162. A concentration of HIV-1 p24 50 pg/10^6 cells was used, and a no virus condition served as a negative control. Viral stocks were quantified by assaying for HIV-1 p24 (Alliance p24 Antigen ELISA Kit; Advanced Bioscience, Kensington, Md.).
# HIV-1SF162 infectivity of human astroglia was determined based on the relative amount of Tat protein expressed by the virus using a luciferase-based reporter assay. Reporters under the control of the long terminal repeat (LTR) viral promoter are a robust means of measuring HIV-1 infection, since the LTR is activated by HIV-1 Tat, which is only expressed by infected cells.
# As the bivalent ligand 1 has been designed as a molecular probe to study the underlying mechanisms of opioid-enhanced NeuroAIDS by targeting the MOR-CCR5 heterodimerization, a luciferase-based HIV-1SF162) infection assay measuring the relative transactivator of transcription (Tat) protein expression in human astrocytes was performed (FIG. 15). Tat is encoded by HIV-1 and is the first protein to be produced after HIV-1 infection. Thus, Tat expression level is directly proportioned to the extent of HIV-1 invasion. Astrocytes were chosen based on the following facts: first, astrocytes express both the MOR and the CCR5. Second, the human blood-brain barrier (BBB) is composed of interacting adjacent cerebral endothelial cells (CECs) and astrocytes, which makes astrocytes a readily accessible target during the course of HIV infection. Thirdly, during NeuroAIDS development astroglia are important cellular sites within the CNS where opioids synergistically potentiate the pathophysiological effects of HIV-1 infection.
# [2] = system: human astrocytes; experiment: Cytotoxicity assay, AOPI live/dead labeling of human astrocytes; assay type: cell-based
# Procedure: Cell viability was assessed by measurement of both live and dead cells using dual (green/red) fluorescence labeling with AOPI analyzed with Cellometer Vision CBA (Nexcelom Bioscience LLC).
# To determine whether HIV-1±morphine exposure affected astrocyte viability in the presence or absence of MVC or the bivalent compound, a cell death assay was performed at 24 h after treatment.
# [3] = system: fusion of CCR5-MOR CHO target cells (CD4) with HEK effector cells (HIV-1 gp140); assay type: cell-based; conditions: for effect on cell fusion: 1 at 3000 nM, 2 at 10000 nM, maraviroc at 100 nM
# [4] = molecular target: mu opioid receptor (MOR) (Homo sapiens (Human), UniProt P35372); experiment: MOR competitive radioligand binding, [3H]naloxone, hMOR-expressed CHO cells
# Procedure: MOR/CHO cell culture and membrane homogenate preparation followed literature report^52.
# Saturation binding was performed by incubating membranes for 90 minutes at 30° C. with 0.5-15 nM [^3H]naloxone in assay buffer in a 0.5 mL volume. […] The reaction was terminated by rapid filtration through Whatman GF/B glass fiber filters, followed by 3 washes with 3 mL ice-cold Tris buffer. Bound radioactivity will be determined by liquid scintillation spectrophotometry at 45% efficiency for [^3H].
# For competition binding assay (agonists or antagonists), Hill plots linear regression analysis and the Cheng-Prusoff equation were applied to determine the IC50 and Ki values. In [^35S]GTPγS binding assays, agonist concentration effect curves were fit by non-linear regression to obtain Emax and EC50 values; antagonist inhibition of agonist-stimulated [^35S]GTPγS binding was analyzed by Hill analysis and AD50 values were corrected to Ki values using the Cheng-Prusoff equation. All analyses were using Prism 4.0.
# Herein is reported the characterization of this novel molecular probe in for its binding affinity, Ca^2+ flux functional activity, and HIV-1 inhibition potency.
# [5] = molecular target: T1, MOR (Homo sapiens (Human), UniProt P35372); experiment: Calcium mobilization assay, CCR5-MOR CHO co-expressed cell line (Gqi5), DAMGO-stimulated; assay type: cell-based; conditions: cells stimulated with DAMGO; read-out: MOR IC50
# Procedure: (§1) Having a cell line that consistently expresses both CCR5 and MOR was essential for studying how the two receptors interact with each other using calcium mobilization assays and cell fusion assays. A previously established MOR Chinese hamster ovarian (CHO) cell line was transfected with a plasmid containing CCR5 tagged with a yellow fluorescent protein on its N-terminus (CCR5-YFP). ^1 After 48 hours cells were sorted based upon the presence of the yellow fluorescent protein tag using a flow cytometer. Cells containing the tagged receptors were then cultured and used in the subsequent assays.
# (§2) Calcium mobilization is directly related to G protein-coupled receptor (GPCR) activation and therefore is a useful technique to study the functional activity of new ligands.
# [6] = molecular target: CCR5 (Homo sapiens (Human), UniProt P51681); experiment: Calcium mobilization assay, CCR5-MOR CHO co-expressed cell line (Gqi5), RANTES-stimulated; assay type: cell-based
# Procedure: as §1, §2
# [7] = molecular target: T1, MOR; experiment: DAMGO-stimulated Ca2+ flux assay in hMOR-CHO cells transfected with Gqi5; assay type: cell-based
# [8] = system: CCR5; experiment: Flow cytometry of CCR5 immunofluorescence in HIV-1 infected primary human astrocytes; assay type: cell-based; conditions: vs uninfected
# Procedure: MOR and CCR5 immunoreactivity were detected by direct immunofluorescence in astroglial cells by flow cytometric analysis. Cells were washed in phosphate-buffered saline (PBS)-0.1% bovine serum albumin (BSA) buffer and incubated with primary MOR antibody followed by a secondary antibody conjugated to allophycocyanin (APC) (Biolegend, Inc; catalog #408001) and Alexa Fluor® 488 conjugated anti-mouse CD195 (CCR5) antibody (Biolegend, Inc; catalog #107008) in permeabilization buffer (PBS-0.1% BSA-0.1% Triton X-100) at a 1:500 dilution. Fluorescence was measured from 10,000 gated cells per treatment in each experiment using a FACSCanto II flow cytometer (BD Biosciences, San Jose, Calif.). Auto-fluorescence was compensated by setting the detector voltage to the minimum level that discriminates between auto-fluorescence and specific immunofluorescence in both negative and positive controls. Isotype control antibodies were used to define settings in histogram plot analyses.
# We quantitatively analyzed the effect of MVC and the bivalent compound on CCR5 and MOR expression levels in virally infected astrocytes by flow cytometry. […] Approximately 20,000 events were analyzed per treatment condition in each experiment and size discrimination was used as a crude method for viability determination.
# CCR5 (Homo sapiens (Human), UniProt P51681), sequence (P51681 whole entry): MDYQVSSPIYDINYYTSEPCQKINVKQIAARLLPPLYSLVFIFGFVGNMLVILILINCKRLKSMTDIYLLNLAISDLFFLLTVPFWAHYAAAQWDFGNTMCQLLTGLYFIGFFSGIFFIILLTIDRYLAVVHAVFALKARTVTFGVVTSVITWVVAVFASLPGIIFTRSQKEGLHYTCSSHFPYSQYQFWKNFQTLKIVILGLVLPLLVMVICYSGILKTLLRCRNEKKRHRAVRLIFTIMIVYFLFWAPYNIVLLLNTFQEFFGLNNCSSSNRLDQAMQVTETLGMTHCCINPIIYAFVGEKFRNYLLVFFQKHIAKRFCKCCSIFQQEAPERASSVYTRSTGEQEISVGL
smiles,measurement,setting,value
Cc1nnc(C(C)C)n1C1CC2CCC(C1)N2CCC(NC(=O)C1CCC(F)(F)CC1)c1ccc(N)cc1 (stereo not shown),melting point,,109 to 110 °C
"Cc1nnc(C(C)C)n1C1C[C@H]2CC[C@@H](C1)N2CC[C@H](NC(=O)C1CCC(F)(F)CC1)c1ccccc1 (stereo in doubt) [Maraviroc, reference compound]","effect on viral entry / Tat production, Example 4",[1],considerably inhibited viral entry
same,"effect on virus invasion (Tat expression), Example 3",[1],virus invasion is decreased
same,astrocyte viability,"[2]; 100 nM, HIV-1 ± morphine, 24 h",not significantly different
same,"toxicity in the astrocytes, cytotoxicity assays (not shown)",[2]; Example 3,neither maraviroc nor 1 had any toxicity
same,toxicity to the cells at higher concentration,[2]; concentration higher than 100 nM,increased toxicity to the cells
same,effect on cell fusion,[3],significantly lowered cell fusion
same,amplification of cell fusion inhibition when morphine present,[3]; morphine 300 nM,not amplified
"O=C1CC[C@@]2(O)[C@H]3Cc4ccc(O)c5c4[C@@]2(CCN3CC2CC2)[C@H]1O5 [Naltrexone, reference compound]","effect on viral entry / Tat production, Example 4",[1],did not show significant effect
same,"effect on virus invasion (Tat expression), Example 3",[1],no effect on virus invasion
Cc1nnc(C(C)C)n1C1CC2CCC(C1)N2CC[C@H](NC(=O)C1CCC(F)(F)CC1)c1cccc(NC(=O)COCC(=O)NCCCCCCCNC(=O)COCC(=O)N[C@@H]2CC[C@@]3(O)[C@H]4Cc5ccc(O)c6c5[C@@]3(CCN4CC3CC3)[C@H]2O6)c1 (stereo partly shown) [compound 2],Ki,"[4]; Example 1, read-out: binding affinity to the mu opioid receptor, Ki",0.00918 ± 0.00344 µM
same,Ki,"[4]; mean of three experiments, read-out: Radioligand binding Ki ± SEM",0.0092 ± 0.0034 µM
same,IC50,[5],0.0174 ± 0.00574 µM
same,fold loss in CCR5 antagonist activity compared to maraviroc,[6],800 fold
same,IC50,[6]; cells stimulated with RANTES,14 ± 0.345 µM
same,effect on cell fusion,[3],significantly lowered cell fusion
same,amplification of cell fusion inhibition when morphine present,[3]; morphine 300 nM,2 fold
same,IC50,"[7]; DAMGO stimulated, hMOR-CHO Gqi5, read-out: Ca2+ inhibition IC50 ± SEM",0.0378 ± 0.0044 µM
same,agonism in Ca2+ mobilization assay,"[7]; hMOR-CHO Gqi5, data not shown",No agonism
"CN1CC[C@]23c4c5ccc(O)c4O[C@H]2[C@@H](O)C=C[C@H]3[C@H]1C5 [morphine, reference compound]",fold increase in Tat expression after infection with R5 in combination with morphine,"[1]; morphine 500 nM, vs uninfected",~2.7 fold
same,"fold increase in CCR5 expression levels, HIV-1R5 in combination with morphine",[8],3.3 fold
same,effect of morphine on cell fusion,"[3]; morphine 300 nM, +CD4, vs +CD4 alone",significant increase
